Source: patent US20100183710A1, “OMEPRAZOLE FORM B” (priority 2005, published 2010)

Assays:
[1] = Long-term stability study of omeprazole Form B (polymorphic form by XRPD); assay type: physicochemical
Excerpt: Omeprazole Form B prepared using a method similar to the one described in Example 1 was subjected to long-term stability studies. Each sample was packed in a clear polythene bag, filled with nitrogen, tied with a tag and kept in a black polythene bag along with silica pouch filled with nitrogen and then sealed. Finally, the above triple laminated bag along with silica pouch was sealed and stored in a HDPE drum. The color, moisture content, purity and the polymorphic form of the product was checked at intervals during storage. The results for compliance of polymorphic form are tabulated below, where “ND” means not detected by XRPD. 950 mg of Form B and 50 mg of Form A of Omeprazole were weighed and combined to form a weight ratio of Form B to Form A of 95:5. The mixture was ground three times in a mortar to get a uniform powder. [table] FIG. 6 is a scan for pure omeprazole Form B. FIG. 5 is the XRPD scan for the standard, containing 5% by weight of omeprazole Form A, and the scan of FIG. 6 has been superimposed for comparison.

[2] = as described in U.S. Pat. No. 6,150,380; cited from earlier work

Row | Structure (SMILES) | Color, moisture content and purity of the product during storage ([1]; long-term stability storage) | Conversion into crystalline Form A during storage ([1]; storage in a container for 6 months at 40° C. and 60% relative humidity) | Conversion into Form A [2] | Hygroscopicity relative to omeprazole Form B [2] | Thermodynamic stability relative to omeprazole Form B [2]
1 | COc1ccc2[nH]c([S+]([O-])Cc3ncc(C)c(OC)c3C)nc2c1 (centres unmarked) [Omeprazole Form B, 5-Methoxy-2-[[(4-methoxy-3,5-dimethyl-2-pyridinyl)methyl]sulfinyl]-1H-benzimidazole] | remained substantially the same | does not convert into crystalline Form A | can completely or partially convert into Form A | – | –
2 | COc1ccc2[nH]c([S+]([O-])Cc3ncc(C)c(OC)c3C)nc2c1 (centres unmarked) [omeprazole Form A, 5-Methoxy-2-[[(4-methoxy-3,5-dimethyl-2-pyridinyl)methyl]sulfinyl]-1H-benzimidazole] | – | – | – | less hygroscopic | thermodynamically more stable
